# Reference: publication PMC9444293 (Investigative Radiology, 2022)
# Read-outs that look alike come from different tables or passages of the source. Marks after values point to notes of the source that are not given here.
# Key:
# [1] = pH 7.4; cited from earlier work
# Partition coefficient = type: physicochemical; settings: pH 7.4, room temperature
# [2] = type: physicochemical; settings: 37°C, pH 7.4, 21 days, LLOQ 0.1 nmol Gd/g
# [3] = type: physicochemical; settings: after 3 days
# [4] = Number of inner sphere water molecules; type: physicochemical; settings: per Gd
# [5] = IV 0.1 mmol Gd/kg bw
# [6] = rat
# [7] = market formulation; ref Port et al, 24; cited from earlier work
# [8] = formulation; ref Port et al, 24; cited from earlier work
# [9] = cited from earlier work
# [10] = ref Szomolanyi et al, 23; cited from earlier work
# [11] = ref Port et al, 24; cited from earlier work
# [12] = 7 days after single IV 0.1 mmol Gd/kg bw
# [13] = 7 days after single IV 0.1 mmol Gd/kg bw, LLOQ 0.05
compound,measurement,setting,value
Gd-PCTA,log Kcond,[1],15.5
"O=C([O-])CN1CCN(CC(=O)[O-])CCN([C@H](CO)[C@H](O)CO)CCN(CC(=O)[O-])CC1.[Gd+3] (racemic) [Gadobutrol, gadobutrol, reference compound]",Log P (1-Butanol/Buffer),Partition coefficient,−2.22
same,Gd release after 21 days in human serum (below LLOQ),[2],< 0.1 nmol Gd/g
same,Decrease of the T1 relaxation rates (R1) in zinc transmetallation assay,[3],no change
same,No. Inner Sphere Water Molecules (q),[4],q = 1
same,AUC^∞,[5]; rat plasma,234 ± 10 (4.3%) μmol·h/L
same,γ-AUC,[5]; rat plasma,1.1 % of AUC^∞
same,γ-AUC,"[5]; rat plasma, listed as gadobutrol",1 % of AUC^∞
same,Clplasma,[5]; rat,0.43 ± 0.02 (4.3%) L/h/kg
same,Vss,[5]; rat,0.29 ± 0.03 (9.1%) L/kg
same,β t1/2,"[5]; rat, 3-compartment model",22 ± 0.69 (3.2%) min
same,γ t1/2,"[5]; rat, 3-compartment model",13 ± 2.0 (16%) h
same,α t1/2,"[5]; rat, 3-compartment model, mean estimate ± SD (CV%)",2.5 ± 1.1 (42%) min
same,"Gadolinium concentration, Bone marrow",[6]; [12],0.628 ± 0.420 nmol Gd/g wet tissue
same,"Gadolinium concentration, Carcass",[6]; [12],0.590 ± 0.162 nmol Gd/g wet tissue
same,"Gadolinium concentration, Heart",[6]; [12],0.127 ± 0.004 nmol Gd/g wet tissue
same,"Gadolinium concentration, Intestine",[6]; [12],0.453 ± 0.233 nmol Gd/g wet tissue
same,"Gadolinium concentration, Kidney",[6]; [12],19.6 ± 1.47 nmol Gd/g wet tissue
same,"Gadolinium concentration, Liver",[6]; [12],0.312 ± 0.054 nmol Gd/g wet tissue
same,"Gadolinium concentration, Lung",[6]; [12],0.218 ± 0.046 nmol Gd/g wet tissue
same,"Gadolinium concentration, Mesenterial lymph nodes",[6]; [12],0.631 ± 0.113 nmol Gd/g wet tissue
same,"Gadolinium concentration, Muscle",[6]; [12],0.074 ± 0.013 nmol Gd/g wet tissue
same,"Gadolinium concentration, Skin",[6]; [12],0.202 ± 0.057 nmol Gd/g wet tissue
same,"Gadolinium concentration, Spleen",[6]; [12],0.382 ± 0.101 nmol Gd/g wet tissue
same,"Gadolinium concentration, Stomach",[6]; [12],0.155 ± 0.010 nmol Gd/g wet tissue
same,"Gadolinium concentration, Blood",[6]; [13],<0.05* nmol Gd/g wet tissue
same,"Gadolinium concentration, Brain",[6]; [13],<0.05* nmol Gd/g wet tissue
same,"Gadolinium concentration, Bone","[6]; femur, 7 days after single IV 0.1 mmol Gd/kg bw",1.013 ± 0.767 nmol Gd/g wet tissue
same,"Amount of Gd recovered in Feces, 0–5 d","[6]; in vivo, iv",1.44% ± 1.2%
same,"Amount of Gd recovered in Urine, 0–1 d","[6]; in vivo, iv",99.2% ± 1.5%
same,"Amount of Gd recovered in Urine, 0–5 d","[6]; in vivo, iv",100% ± 1.6%
same,"Total recovery of Gd, 0–7 d","[6]; in vivo, iv",102% ± 4.1%
same,Osmolality at 37°C,[7],1603∥ mosmol/kg H2O
same,Viscosity at 37°C,[8],5.0∥ mPa·s
same,"r1-Relaxivity in Human Plasma at 37°C, 1.5 T","[9]; ref Szomolanyi et al, 23, listed as gadobutrol",4.8 mM⁻¹ s⁻¹
same,"r1-Relaxivity in Human Plasma at 37°C, 1.5 T","[9]; ref Szomolanyi et al, 23",4.8 ± 0.1§ mM^−1 s^−1
same,"r1-Relaxivity in Human Plasma at 37°C, 3.0 T",[10],5.0 ± 0.6§ mM^−1 s^−1
CC(O)CN1CCN(CC(=O)[O-])CCN(CC(=O)[O-])CCN(CC(=O)[O-])CC1.[Gd+3] (centres unmarked) [Gadoteridol],No. Inner Sphere Water Molecules (q),[4],q = 1
same,Osmolality at 37°C,[7],630∥ mosmol/kg H2O
same,Viscosity at 37°C,[8],1.3∥ mPa·s
same,"r1-Relaxivity in Human Plasma at 37°C, 1.5 T","[9]; ref Szomolanyi et al, 23",3.8 ± 0.1§ mM^−1 s^−1
same,"r1-Relaxivity in Human Plasma at 37°C, 3.0 T",[10],3.3 ± 0.1§ mM^−1 s^−1
same,Log P (1-Butanol/Buffer),[11],−1.98∥
"CNC[C@H](O)[C@@H](O)[C@H](O)[C@H](O)CO.CNC[C@H](O)[C@@H](O)[C@H](O)[C@H](O)CO.O=C([O-])CN(CCN(CC(=O)[O-])CC(=O)O)CCN(CC(=O)[O-])CC(=O)O.[Gd+3] [Gadopentetate dimeglumine, gadopentetate dimeglumine]",Decrease of the T1 relaxation rates (R1) in zinc transmetallation assay,[3],66%
"CNC[C@H](O)[C@@H](O)[C@H](O)[C@H](O)CO.O=C([O-])CN1CCN(CC(=O)[O-])CCN(CC(=O)O)CCN(CC(=O)[O-])CC1.[Gd+3] [Gadoterate meglumine, gadoterate meglumine]",Decrease of the T1 relaxation rates (R1) in zinc transmetallation assay,[3],no change
same,No. Inner Sphere Water Molecules (q),[4],q = 1
same,Osmolality at 37°C,[7],1350∥ mosmol/kg H2O
same,Viscosity at 37°C,[8],2.0∥ mPa·s
same,"r1-Relaxivity in Human Plasma at 37°C, 1.5 T","[9]; ref Szomolanyi et al, 23, listed as gadoterate meglumine",3.3 mM⁻¹ s⁻¹
same,"r1-Relaxivity in Human Plasma at 37°C, 1.5 T","[9]; ref Szomolanyi et al, 23",3.3 ± 0.1§ mM^−1 s^−1
same,"r1-Relaxivity in Human Plasma at 37°C, 3.0 T",[10],3.0 ± 0.1§ mM^−1 s^−1
same,Log P (1-Butanol/Buffer),[11],−2.87∥
Gadopiclenol,log Kcond,[1],15.5
